Measured values published in patent US6555821B1, “Method for analysis of expired gas” (priority 1999, dated 2003).
Values joined by “and” are separate entries in the source; they are usually repeats but may differ in a detail not shown here. Equal values may be shown once.

Assays:
[1] = Bubbling tests: alcohol concentration in gas phase over alcohol-water solution, measured by low resolution FT-IR; assay type: physicochemical; details: for Concentration of ethanol in gas phase / Concentration of methanol in gas phase: 21.0 ± 1.0° C., 1 atm, mean ± SD of 10 spectra
[2] = 25° C., 1 atm; Hine and Mookerjee 1975, Davidovits et al. 1995; cited from earlier work
[3] = Bubbling tests: alcohol concentration in gas phase over alcohol-water solution, measured by low resolution FT-IR; assay type: physicochemical; details: for Concentration of methanol in gas phase: 21.0 ± 1.0° C., 1 atm, mean ± SD of 10 spectra
Method: Vaporous ethanol and methanol mixtures in water were made by bubbling nitrogen gas through a corresponding liquid mixture. The purpose of measuring mixtures of ethanol and methanol was to test the applicability of the instrument for determining more than one alcohol in a gas mixture containing a large amount of water vapor like human exhaled breath. Particularly, the measurements were performed with a large ethanol:methanol ratio in order to investigate whether the instrument is able to determine a low concentration of methanol in the presence of a large amount of ethanol.

SMILES: CCO [ethanol]
- Concentration of ethanol in gas phase ([1]; 3.17 W-% ethanol in water with methanol in liquid 0.102 w-%): 295 ± 2 ppm
- Concentration of ethanol in gas phase ([1]; 3.17 W-% ethanol in water with methanol in liquid 0.159 w-%): 314 ± 4 ppm
- Concentration of ethanol in gas phase ([1]; 3.17 W-% ethanol in water with methanol in liquid 0.222 w-%): 298 ± 3 ppm
- Concentration of ethanol in gas phase ([1]; 3.17 W-% ethanol in water with methanol in liquid 0.317 w-%): 304 ± 2 ppm
- Concentration of ethanol in gas phase ([1]; 3.17 W-% ethanol in water with methanol in liquid 0.95 w-%): 296 ± 4 ppm
- Concentration of ethanol in gas phase ([1]; 3.17 W-% ethanol in water with methanol in liquid 1.59 w-%): 303 ± 5 ppm
- Concentration of ethanol in gas phase ([1]; 3.17 W-% ethanol in water with methanol in liquid 3.18 w-%): 300 ± 2 ppm
- Concentration of ethanol in gas phase ([1]; 3.17 W-% ethanol in water with methanol in liquid 6.36 w-%): 293 ± 3 ppm
- Concentration of ethanol in gas phase ([1]; 3.17 W-% ethanol in water with methanol in liquid 15.9 w-%): 289 ± 1 ppm
- ethanol in the gas phase (FIG. 1 spectrum) ([1]; 3.17 w-‰ ethanol and 0.159 w-‰ methanol in liquid phase (water), 21±1° C.): 310 ppm
- Concentration of ethanol in gas phase ([1]; ethanol in liquid 0.202 w-%, water): 19.2 ± 0.1 ppm
- Concentration of ethanol in gas phase ([1]; ethanol in liquid 0.5 w-%, water): 45.7 ± 0.3 ppm
- Concentration of ethanol in gas phase ([1]; ethanol in liquid 1 w-%, water): 94 ± 1 ppm
- Concentration of ethanol in gas phase ([1]; ethanol in liquid 1.58 w-%, water): 148 ± 2 ppm
- Concentration of ethanol in gas phase ([1]; ethanol in liquid 3.16 w-%, water): 305 ± 4 ppm
- Concentration of ethanol in gas phase ([1]; ethanol in liquid 6.33 w-%, water): 587 ± 4 ppm
- Concentration of ethanol in gas phase ([1]; ethanol in liquid 9.49 w-%, water): 907 ± 6 ppm
- Concentration of ethanol in gas phase ([1]; ethanol in liquid 15.8 w-%, water): 1466 ± 11 ppm
- Concentration of ethanol in gas phase ([1]; ethanol in liquid 31.6 w-%, water): 2907 ± 4 ppm

SMILES: CO [methanol]
- water-air partition coefficient (literature Henry's law constants) [2]: 5260 and 5334
- methanol in the gas phase (FIG. 1 spectrum) ([3]; 0.159 w-‰ methanol and 3.17 w-‰ ethanol in liquid phase (water), 21±1° C.): 22.4 ppm
- Concentration of methanol in gas phase ([3]; methanol in liquid 0.222 w-% in mixture of water and 3.17 W-% ethanol): 30.2 ± 0.5 ppm
- Concentration of methanol in gas phase ([3]; methanol in liquid 0.95 w-% in mixture of water and 3.17 W-% ethanol): 120 ± 2 ppm
- Concentration of methanol in gas phase ([3]; methanol in liquid 1.59 w-% in mixture of water and 3.17 W-% ethanol): 201 ± 3 ppm
- Concentration of methanol in gas phase ([3]; methanol in liquid 3.18 w-% in mixture of water and 3.17 W-% ethanol): 402 ± 2 ppm
- Concentration of methanol in gas phase ([3]; methanol in liquid 6.36 w-% in mixture of water and 3.17 W-% ethanol): 806 ± 7 ppm
- Concentration of methanol in gas phase ([1]; methanol in liquid 0.101 w-%, water): 13 ± 0.2 ppm
- Concentration of methanol in gas phase ([1]; methanol in liquid 0.102 w-% in mixture of water and 3.17 W-% ethanol): 14.2 ± 0.4 ppm
- Concentration of methanol in gas phase ([1]; methanol in liquid 0.159 w-% in mixture of water and 3.17 W-% ethanol): 22.2 ± 0.4 ppm
- Concentration of methanol in gas phase ([1]; methanol in liquid 0.203 w-%, water): 26.9 ± 0.1 ppm
- Concentration of methanol in gas phase ([1]; methanol in liquid 0.301 w-%, water): 41.6 ± 0.3 ppm
- Concentration of methanol in gas phase ([1]; methanol in liquid 0.317 w-% in mixture of water and 3.17 W-% ethanol): 43.4 ± 0.4 ppm
- Concentration of methanol in gas phase ([1]; methanol in liquid 0.501 w-%, water): 61 ± 1 ppm
- Concentration of methanol in gas phase ([1]; methanol in liquid 1.59 w-%, water): 204 ± 2 ppm
- Concentration of methanol in gas phase ([1]; methanol in liquid 3.17 w-%, water): 402 ± 2 ppm
- Concentration of methanol in gas phase ([1]; methanol in liquid 6.34 w-%, water): 805 ± 4 ppm
- Concentration of methanol in gas phase ([1]; methanol in liquid 9.51 w-%, water): 1207 ± 5 ppm
- Concentration of methanol in gas phase ([1]; methanol in liquid 15.9 w-% in mixture of water and 3.17 W-% ethanol): 2006 ± 3 ppm
- Concentration of methanol in gas phase ([1]; methanol in liquid 15.9 w-%, water): 2031 ± 14 ppm
- Concentration of methanol in gas phase ([1]; methanol in liquid 31.7 w-%, water): 4067 ± 28 ppm
